{"source": "paper PMC12281424", "about": "“A Rac-specific competitive inhibitor of guanine nucleotide binding reduces metastasis in triple-negative breast cancer” (Cell Reports Medicine, 2025)", "key": {"[1]": {"target": "NEK4(h) (Homo sapiens, UniProt P51957)", "sequence (P51957 whole entry)": "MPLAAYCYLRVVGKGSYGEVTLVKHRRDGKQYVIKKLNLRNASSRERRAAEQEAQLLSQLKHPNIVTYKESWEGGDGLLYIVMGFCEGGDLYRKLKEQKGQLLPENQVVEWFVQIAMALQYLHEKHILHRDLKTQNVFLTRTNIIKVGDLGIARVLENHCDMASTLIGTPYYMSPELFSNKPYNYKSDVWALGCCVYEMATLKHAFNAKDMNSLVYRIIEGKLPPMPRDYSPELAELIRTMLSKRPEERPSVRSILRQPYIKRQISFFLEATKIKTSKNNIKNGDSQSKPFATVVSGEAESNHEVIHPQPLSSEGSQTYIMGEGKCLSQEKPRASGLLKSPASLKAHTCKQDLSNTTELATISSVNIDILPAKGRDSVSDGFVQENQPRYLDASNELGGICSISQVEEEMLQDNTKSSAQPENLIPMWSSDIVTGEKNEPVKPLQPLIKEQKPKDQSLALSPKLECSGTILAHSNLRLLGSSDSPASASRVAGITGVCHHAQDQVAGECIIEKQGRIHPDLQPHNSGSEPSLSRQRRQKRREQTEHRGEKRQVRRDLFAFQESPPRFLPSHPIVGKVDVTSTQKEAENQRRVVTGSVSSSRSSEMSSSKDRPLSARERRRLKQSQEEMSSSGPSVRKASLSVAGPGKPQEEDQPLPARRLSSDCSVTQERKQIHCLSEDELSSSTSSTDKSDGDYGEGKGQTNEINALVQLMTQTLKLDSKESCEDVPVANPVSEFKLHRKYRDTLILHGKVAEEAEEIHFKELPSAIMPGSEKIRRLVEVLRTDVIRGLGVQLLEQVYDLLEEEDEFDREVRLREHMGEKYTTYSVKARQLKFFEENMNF", "assay": "Kinase Profiler", "assay_type": "biochemical", "method": "(§1) The kinase profiler was performed by the company Eurofins (Discovery, Panlab and Cerep)."}, "[2]": {"target": "Blk(h) (Homo sapiens, UniProt P51451)", "sequence (P51451 whole entry)": "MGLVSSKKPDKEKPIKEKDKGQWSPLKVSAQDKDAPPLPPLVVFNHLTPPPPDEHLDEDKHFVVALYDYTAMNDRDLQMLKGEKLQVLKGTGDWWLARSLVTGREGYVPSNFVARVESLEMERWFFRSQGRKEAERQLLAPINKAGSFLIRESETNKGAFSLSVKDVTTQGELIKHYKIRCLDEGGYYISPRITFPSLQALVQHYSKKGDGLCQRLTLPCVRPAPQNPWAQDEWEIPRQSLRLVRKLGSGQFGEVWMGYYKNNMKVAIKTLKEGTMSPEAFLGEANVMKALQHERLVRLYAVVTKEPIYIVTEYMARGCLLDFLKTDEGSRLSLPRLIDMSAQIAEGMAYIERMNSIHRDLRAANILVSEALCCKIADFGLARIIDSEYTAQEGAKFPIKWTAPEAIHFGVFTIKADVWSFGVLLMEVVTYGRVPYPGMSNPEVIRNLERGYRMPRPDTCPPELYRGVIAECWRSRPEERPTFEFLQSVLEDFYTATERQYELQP", "assay": "Kinase Profiler", "assay_type": "biochemical", "method": "(§2) Blood cell counts, kinase profiler, safety screen, bacterial cytotoxicity, Ames, micronucleus assays were performed by the company Eurofins (France). The kinase profiler was performed by the company Eurofins (Discovery, Panlab and Cerep)."}, "[3]": {"target": "CDC42 (Homo sapiens, UniProt P60953)", "sequence (P60953 whole entry)": "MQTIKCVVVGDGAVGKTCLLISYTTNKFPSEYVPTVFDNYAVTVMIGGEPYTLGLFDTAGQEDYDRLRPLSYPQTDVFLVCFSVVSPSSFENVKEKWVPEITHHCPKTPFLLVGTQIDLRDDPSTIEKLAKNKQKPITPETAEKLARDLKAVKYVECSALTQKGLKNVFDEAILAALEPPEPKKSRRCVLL", "assay": "GEF-stimulated nucleotide exchange", "assay_type": "biochemical", "set-up": "Full-length RAC2, RHOG, RHOA and CDC42 were purified as previously described; made in house; TIAM DH-PH in E. coli Rosetta (DE3) pLysS", "conditions": "10^-5 M", "source_text": "Figure 4 A41 selectively impairs RAC protein activation (A) Representative surface plasmon resonance (SPR) sensograms of binding of immobilized RHOA or CDC42 with indicated increasing concentrations of A41 (N > 3). (B) Effect of A41 on GEF-stimulated RAC2, RHOG, RHOA, and CDC42 nucleotide exchange. […] Kobs is expressed as mean ± SEM. ∗p < 0.001 vs. control. (C) Effect of A41 on RAC1 G30S activation. […] The GEF TRIO was used to induce nucleotide exchange (N = 3). Data are expressed as mean ± SEM. (D) Immunoblot analysis and associated quantification of RAC-GTP level and total RAC expression in NIH-3T3 fibroblasts expressing RAC wild-type (RAC1 WT) or RAC1 oncomutants (RAC1 P29S and RAC1b) in the absence (Ctrl) and presence of A41 (10 μM). RAC activation was measured as the ratio of RAC-GTP to total RAC and expressed relative to Ctrl condition. Data are presented as mean ± SEM. ∗∗∗p < 0.001 vs. controls.\nFull-length RAC1 carrying a 6xHis tag in C-terminus was purified as previously described.[64] […] Specific exchange activity toward RHOA determined by fluorescence kinetics is 0.04 s^−1M^−1.\nNucleotide exchange kinetics were measured by recording the increase in fluorescence following the association of mant-GTP on GDP-bound RHO protein or the decay in fluorescence following the dissociation of mant-GDP pre-loaded onto the RHO protein (λEx = 360 nm, λEm = 440 nm) as previously described.[39] […]"}, "[4]": {"test_system": "CK1(y)", "assay": "Kinase Profiler", "assay_type": "biochemical, yeast", "method": "as §1"}, "[5]": {"test_system": "GABAA, Flunitrazepam, Central", "assay": "Safety screen", "assay_type": "binding, rat", "method": "(§3) Blood cell counts, kinase profiler, safety screen, bacterial cytotoxicity, Ames, micronucleus assays were performed by the company Eurofins (France)."}, "[6]": {"target": "FGFR2(N549H)(h) (Homo sapiens, UniProt P21802, N549H)", "sequence (P21802 22-821 N549H)": "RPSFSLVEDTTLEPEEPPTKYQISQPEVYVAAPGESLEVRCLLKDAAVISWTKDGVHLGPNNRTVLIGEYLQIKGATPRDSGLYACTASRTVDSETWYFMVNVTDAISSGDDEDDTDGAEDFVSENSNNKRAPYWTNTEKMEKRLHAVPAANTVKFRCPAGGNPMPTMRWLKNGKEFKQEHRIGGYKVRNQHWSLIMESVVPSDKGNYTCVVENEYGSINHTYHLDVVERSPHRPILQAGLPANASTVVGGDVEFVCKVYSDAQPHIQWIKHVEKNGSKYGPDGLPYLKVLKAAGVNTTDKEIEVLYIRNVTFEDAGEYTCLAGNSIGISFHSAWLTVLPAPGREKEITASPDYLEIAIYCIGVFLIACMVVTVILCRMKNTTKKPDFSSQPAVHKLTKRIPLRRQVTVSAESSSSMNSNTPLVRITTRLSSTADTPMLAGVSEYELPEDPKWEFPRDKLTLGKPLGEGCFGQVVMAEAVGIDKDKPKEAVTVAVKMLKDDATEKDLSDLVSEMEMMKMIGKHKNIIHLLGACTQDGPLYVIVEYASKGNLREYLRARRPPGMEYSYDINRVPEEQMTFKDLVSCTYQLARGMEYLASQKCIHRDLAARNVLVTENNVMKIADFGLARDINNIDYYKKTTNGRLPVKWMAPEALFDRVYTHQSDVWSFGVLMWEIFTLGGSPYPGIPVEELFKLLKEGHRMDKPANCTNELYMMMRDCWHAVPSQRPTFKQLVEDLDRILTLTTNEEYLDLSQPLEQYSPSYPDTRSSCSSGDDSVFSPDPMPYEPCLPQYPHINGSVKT", "assay": "Kinase Profiler", "assay_type": "biochemical", "method": "as §1"}, "[7]": {"target": "GCN2(h) (Homo sapiens, UniProt Q9P2K8)", "assay": "Kinase Profiler", "assay_type": "biochemical", "method": "as §2"}, "[8]": {"target": "Txk(h) (Homo sapiens, UniProt P42681)", "assay": "Kinase Profiler", "assay_type": "biochemical", "method": "as §2"}, "[9]": {"target": "BIKe(h) (Homo sapiens, UniProt Q9NSY1)", "assay": "Kinase Profiler", "assay_type": "biochemical", "method": "as §2"}, "[10]": {"target": "TSSK4(h) (Homo sapiens, UniProt Q6SA08)", "sequence (Q6SA08 whole entry)": "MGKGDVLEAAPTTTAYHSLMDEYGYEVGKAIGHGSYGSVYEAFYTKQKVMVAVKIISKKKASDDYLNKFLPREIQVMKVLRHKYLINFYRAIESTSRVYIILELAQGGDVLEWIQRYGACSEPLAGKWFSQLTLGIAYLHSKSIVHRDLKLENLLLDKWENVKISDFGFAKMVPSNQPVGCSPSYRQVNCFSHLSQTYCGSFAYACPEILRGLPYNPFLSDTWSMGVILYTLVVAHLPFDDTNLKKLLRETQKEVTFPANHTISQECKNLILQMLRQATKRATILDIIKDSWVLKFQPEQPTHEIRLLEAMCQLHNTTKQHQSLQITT", "assay": "Kinase Profiler", "assay_type": "biochemical", "method": "as §1"}, "[11]": {"target": "FGFR4(h) (Homo sapiens, UniProt P22455)", "assay": "Kinase Profiler", "assay_type": "biochemical", "method": "as §1"}, "[12]": {"target": "PDK1(h) (Homo sapiens, UniProt O15530)", "assay": "Kinase Profiler", "assay_type": "biochemical", "method": "as §2"}, "[13]": {"target": "Met(h) (Homo sapiens, UniProt P08581)", "sequence (P08581 25-1390)": "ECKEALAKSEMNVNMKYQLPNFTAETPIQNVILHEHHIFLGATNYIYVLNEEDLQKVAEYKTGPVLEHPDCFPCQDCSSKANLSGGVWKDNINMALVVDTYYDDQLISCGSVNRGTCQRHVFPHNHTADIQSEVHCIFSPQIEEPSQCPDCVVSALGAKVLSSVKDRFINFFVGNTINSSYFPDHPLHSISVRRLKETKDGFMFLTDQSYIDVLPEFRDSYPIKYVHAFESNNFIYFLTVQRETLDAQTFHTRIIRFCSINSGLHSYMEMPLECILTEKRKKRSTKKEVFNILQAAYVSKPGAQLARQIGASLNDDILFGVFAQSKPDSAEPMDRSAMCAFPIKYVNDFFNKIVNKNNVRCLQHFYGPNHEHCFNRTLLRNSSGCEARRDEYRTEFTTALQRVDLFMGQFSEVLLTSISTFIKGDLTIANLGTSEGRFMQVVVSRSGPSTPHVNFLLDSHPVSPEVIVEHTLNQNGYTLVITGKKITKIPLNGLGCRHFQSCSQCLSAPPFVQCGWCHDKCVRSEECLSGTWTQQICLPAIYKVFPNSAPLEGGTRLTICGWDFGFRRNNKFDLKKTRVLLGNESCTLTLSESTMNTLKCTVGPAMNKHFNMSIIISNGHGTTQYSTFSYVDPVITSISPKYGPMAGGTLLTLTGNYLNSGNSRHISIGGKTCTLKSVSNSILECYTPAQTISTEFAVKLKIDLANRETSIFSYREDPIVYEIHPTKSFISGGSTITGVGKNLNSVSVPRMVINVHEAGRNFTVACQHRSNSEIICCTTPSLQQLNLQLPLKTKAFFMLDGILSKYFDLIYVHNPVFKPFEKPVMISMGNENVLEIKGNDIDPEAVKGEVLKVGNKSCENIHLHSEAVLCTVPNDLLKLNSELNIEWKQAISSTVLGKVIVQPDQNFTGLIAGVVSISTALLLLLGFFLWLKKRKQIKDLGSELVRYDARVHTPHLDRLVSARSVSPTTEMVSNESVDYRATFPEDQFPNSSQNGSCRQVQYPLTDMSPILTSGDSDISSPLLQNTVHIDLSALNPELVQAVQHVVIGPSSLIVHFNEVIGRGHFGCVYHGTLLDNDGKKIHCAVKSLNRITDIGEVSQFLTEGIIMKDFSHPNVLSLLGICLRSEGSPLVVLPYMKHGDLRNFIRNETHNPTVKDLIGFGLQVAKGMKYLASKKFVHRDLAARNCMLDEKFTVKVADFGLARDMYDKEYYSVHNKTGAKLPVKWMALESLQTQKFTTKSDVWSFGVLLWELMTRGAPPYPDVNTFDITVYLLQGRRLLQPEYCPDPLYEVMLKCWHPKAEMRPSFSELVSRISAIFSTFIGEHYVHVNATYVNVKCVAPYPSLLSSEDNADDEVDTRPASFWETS", "assay": "Kinase Profiler", "assay_type": "biochemical", "method": "as §1"}, "[14]": {"target": "PKD3(h) (Homo sapiens, UniProt O94806)", "sequence (O94806 whole entry)": "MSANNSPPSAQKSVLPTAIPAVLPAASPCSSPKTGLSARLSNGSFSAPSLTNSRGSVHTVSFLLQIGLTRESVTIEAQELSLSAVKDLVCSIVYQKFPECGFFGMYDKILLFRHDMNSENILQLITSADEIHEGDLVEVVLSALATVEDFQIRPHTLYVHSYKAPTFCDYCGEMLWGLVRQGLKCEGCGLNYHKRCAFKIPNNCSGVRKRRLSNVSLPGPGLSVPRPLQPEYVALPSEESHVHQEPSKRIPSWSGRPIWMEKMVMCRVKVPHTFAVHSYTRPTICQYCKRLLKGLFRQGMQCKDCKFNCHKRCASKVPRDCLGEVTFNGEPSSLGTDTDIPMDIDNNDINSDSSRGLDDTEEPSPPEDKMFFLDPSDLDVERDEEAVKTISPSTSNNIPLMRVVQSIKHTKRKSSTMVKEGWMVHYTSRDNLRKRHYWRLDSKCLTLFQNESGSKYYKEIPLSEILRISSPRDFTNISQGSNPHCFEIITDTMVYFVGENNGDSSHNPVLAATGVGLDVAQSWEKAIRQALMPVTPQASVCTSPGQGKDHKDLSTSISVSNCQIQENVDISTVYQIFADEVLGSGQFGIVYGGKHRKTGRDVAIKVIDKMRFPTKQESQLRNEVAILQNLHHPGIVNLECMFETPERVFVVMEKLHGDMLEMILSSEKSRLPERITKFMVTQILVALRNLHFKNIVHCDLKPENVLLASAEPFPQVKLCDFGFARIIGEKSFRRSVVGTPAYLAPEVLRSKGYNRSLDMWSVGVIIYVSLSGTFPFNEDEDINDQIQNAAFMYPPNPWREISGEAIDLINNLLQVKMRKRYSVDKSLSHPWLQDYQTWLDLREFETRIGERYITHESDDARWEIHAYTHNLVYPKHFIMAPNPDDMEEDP", "assay": "Kinase Profiler", "assay_type": "biochemical", "method": "as §1"}, "[15]": {"target": "NLK(h) (Homo sapiens, UniProt Q9UBE8)", "assay": "Kinase Profiler", "assay_type": "biochemical", "method": "as §1"}, "[16]": {"target": "Neuropeptide Y Y1 (Homo sapiens, UniProt P25929)", "assay": "Safety screen", "assay_type": "binding", "method": "as §3"}}}
{"smiles": "COc1ccc(OC)c(NS(=O)(=O)c2ccc(NC(=O)CCSc3ccc(C)cc3)cc2)c1", "note": "[Compound A41]", "values": [{"measurement": "Activity(%)", "setting": "[1]", "value": 108, "unit": "%"}, {"measurement": "Activity(%)", "setting": "[2]", "value": 99, "unit": "%"}, {"measurement": "activation of CDC42 induced by TIAM DH-PH", "setting": "[3]", "value": "did not change the activation"}, {"measurement": "Activity(%)", "setting": "[4]", "value": 98, "unit": "%"}, {"measurement": "% inh.", "setting": "[5]", "value": 15, "unit": "%"}, {"measurement": "Activity(%)", "setting": "[6]", "value": 105, "unit": "%"}, {"measurement": "Activity(%)", "setting": "[7]", "value": 101, "unit": "%"}, {"measurement": "Activity(%)", "setting": "[8]", "value": 118, "unit": "%"}, {"measurement": "Activity(%)", "setting": "[9]", "value": 112, "unit": "%"}, {"measurement": "Activity(%)", "setting": "[10]", "value": 103, "unit": "%"}, {"measurement": "Activity(%)", "setting": "[11]", "value": 116, "unit": "%"}, {"measurement": "Activity(%)", "setting": "[12]", "value": 107, "unit": "%"}, {"measurement": "Activity(%)", "setting": "[13]", "value": 88, "unit": "%"}, {"measurement": "Activity(%)", "setting": "[14]", "value": 104, "unit": "%"}, {"measurement": "Activity(%)", "setting": "[15]", "value": 99, "unit": "%"}, {"measurement": "% inh.", "setting": "[16]", "value": -2, "unit": "%"}]}
